The results in this text go back to patent US7977056B2, “Methods of identifying stimulants for biogenic methane production from hydrocarbon-bearing formations” (Synthetic Genomics, Inc., priority 2008, dated 2011).

The assay has as its system defined microbial assemblage. As to the kind of experiment: Stimulation of methane production by a defined microbial assemblage grown on coal as sole carbon source. The class given is cell-based. Particulars: for methane production: defined microbial assemblage, in vitro culture with coal as sole carbon source, after stimulation with the substance. As to the method:
The availability of a defined microbial assemblage producing methane from coal in vitro, as well as a suite of strains capable of aerobic coal degradation prompted laboratory experiments where various stimulants were tested for their effect on methane production.
This degradation is stimulated by the addition of oxygen as reactant for the oxygenase-classes of enzymes present in some of the strains included in the DMA.

“Also recorded” adds a separate entry of the source.

Turning to `O=O` [oxygen], the methane production result was “greatest increase in methane production; also recorded: increased methane production”. Further, for the setting “oxygen applied at higher than optimal levels”, the methanogenesis entry is recorded as “represses methanogenesis”.
For the molecule `OCC(O)CO` [glycerol], the methane production result was “increased methane production”.
Turning to `CC(=O)O` [acetate], the methane production result is “increased methane production”.
Turning to `CN(C)C` [trimethylamine], the methane production entry was “increased methane production”.
As to `[HH]` [H2, hydrogen], the methane production entry was “increased methane production”.
